Assay: gradient 5% acetonitrile 3 min, to 50% in 2 min, to 85% in 15 min, held 3 min, 100 µL/min
Conditions: column: Zorbax Extend-C18 2.1 x 50 mm; eluents: water / acetonitrile, 0.1% formic acid
Summary of the method: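 Data were gathered over 3 months by HPLC coupled to a quadrupole time-of-flight mass spectrometer, operated in positive and negative ionization mode. Mixtures of ~100 pure standards ran on a Zorbax Extend-C18 column (2.1 × 50 mm, 1.8 μm) at 100 μL/min, with water and acetonitrile each containing 0.1% formic acid and dead and dwell volumes of 40 μL and 900 μL. Retention time was read from adduct peaks picked by computer and checked manually.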

Compound	RP-LC retention time
O=C(NCCN1CCN(C(=O)c2cccs2)CC1)c1ccc2nsnc2c1	550 s
Cc1ccc(OCC(=O)Nc2cc3c(cc2N2CCCC2)n(C)c(=O)c(=O)n3C)c(C)c1	1000 s
CC(C)c1nncn1C1CCN(C(=O)c2cc(-c3cccs3)[nH]n2)C1 (stereo unspecified)	617 s
N#CSc1ccc(NC(=O)c2ccc(-n3cnnn3)cc2)cc1	754 s
Cn1cc(CC(=O)Nc2ccc(F)cc2)c2cccnc21	703 s
CCc1ccc(OCC(=O)Nc2cc3c(cc2N2CCCC2)n(C)c(=O)c(=O)n3C)cc1	836 s
CC(=O)N1CCc2cc(C)c(S(=O)(=O)NC3CC3)cc21	709 s
Cc1ccc(C(=O)N2CCCC(COc3ccc(C(=O)N4CCOCC4)cc3)C2)cc1 (stereo unspecified)	793 s
O=C(Cn1ccnc1)N1CCC(OCc2nc(C3CC3)no2)CC1	582 s
CCOC(=O)C1=C(C)NC2=C(C(=O)c3ccccc32)C1c1ccc(OCC)cc1 (stereo unspecified)	718 s
O=C(c1ccco1)N1CCN(C(=O)C2CCCN(c3ncnc4c3nc3n4CCCCC3)C2)CC1 (stereo unspecified)	657 s
CNc1ccc2oc(C[C@H]3O[C@@]4(CC[C@H]3C)O[C@H]([C@H](C)C(=O)c3ccc[nH]3)[C@H](C)C[C@H]4C)nc2c1C(=O)O	1030 s
COC(=O)c1cccc(NC(=O)c2c(O)c3cccnc3n(-c3ccc(F)cc3)c2=O)c1	1190 s
O=C(NC1CCCCC1)N1CCCC(Cn2c(C3CC3)nc3cccnc32)C1 (stereo unspecified)	668 s
CCCCN1C(=O)C(NC(=O)CCc2ccccc2)(C(F)(F)F)C(C(=O)OC)=C1C (stereo unspecified)	1030 s
Cc1ncsc1CN1CCCC(c2nc(-c3cnccn3)no2)CCNC(=O)CC1 (stereo unspecified)	577 s
Cc1ccc(Nc2c(-c3ccccc3Cl)nc3ccc(Br)cn23)cc1	1110 s
Cc1cc(N2CCN(C(=O)c3ccc(Cl)cc3)CC2)nc(N2CCOCC2)n1	639 s
O=c1c2sccc2n(Cc2nc(-c3ccc(Br)cc3)no2)c(=O)n1-c1cccc(F)c1	1070 s

Next, values leading:

RP-LC retention time	Compound
794 s	Cc1ccc(CNC(=O)C2CCN(S(=O)(=O)c3ccc4c(c3)NC(=O)CO4)CC2)cc1
933 s	O=C1CC(c2nc(-c3ccccc3Cl)no2)CN1c1ccc2c(c1)OCO2 (stereo unspecified)
695 s	CCCN(C)C(=O)c1ccc(-n2cc(CNC(=O)C3CCC3)cn2)cc1
1350 s	Cc1ccc(-c2noc(C3CCCN3S(=O)(=O)c3ccc4c(c3)CCCC4)n2)cc1 (stereo unspecified)
918 s	COc1ccc(-c2nnc(NC(=O)CSc3nc4ccccc4s3)s2)cc1
663 s	O=C(c1ccc(-c2cccnc2)nc1)N1CCN(c2ccccc2)CC1
1330 s	CCOc1nc2ccccc2nc1N1CCCC(C(=O)N2CCN(c3ccccc3F)CC2)C1 (stereo unspecified)
588 s	CC1CCN(c2ccc(-c3cccc(N)c3)nn2)CC1
879 s	Oc1ccccc1-c1nc2ccc(Cl)cn2c1Nc1ccc2c(c1)OCCO2
616 s	O=C(NC1COc2ccccc2C1)N1CCN(c2ccccn2)CC1 (stereo unspecified)
572 s	CCc1ccc(C(O)CN2CCN(c3ccccn3)CC2)cc1 (stereo unspecified)
943 s	O=S(=O)(Cc1ccccc1)N1CCCCC1c1nc(-c2ccccc2)n[nH]1 (stereo unspecified)
930 s	COc1ccc(Cl)cc1NC(=O)NCC(=O)N1CCc2ccccc21
1230 s	Cc1cccc2c(=O)n(C3CCN(S(=O)(=O)c4ccc(CC(C)C)cc4)CC3)cnc12
598 s	CN(C)c1ccc(CNC(=O)C2CCN(S(=O)(=O)c3ccc4c(c3)NC(=O)CO4)CC2)cc1
779 s	Cc1nnc2ccc(N3CCC(C(=O)NC(C)CCc4ccccc4)CC3)nn12 (stereo unspecified)
699 s	Cn1c(=O)c2ccn(CC(=O)NCCCc3ccccc3)c2n(C)c1=O
